Laboratory results reported in patent publication US20230174636A1, “COMPOSITIONS AND METHODS FOR TREATING CANCER” (RUSH UNIVERSITY MEDICAL CENTER, priority 2020, published 2023).
Where no end group is shown, it is not given here. [ ]: non-standard residue; d: D form.

Experiments:
TNBC tumor [1] = test: Tumor size in PDX mouse model of TNBC; type: in vivo, mice; conditions: for shrinkage of TNBC tumor in mAb a3-3a-treated mice / tumor shrinkage in mAb a3-3a-treated TNBC mice: peptide 0.1 mg/kg daily intranasal plus a3-3a 2 mg/kg weekly i.p.; for shrinkage of TNBC tumor in mAb a3-3a-treated mice: 3 weeks; for tumor shrinkage in mAb a3-3a-treated TNBC mice: three weeks; for p40 mAb a3-3a-mediated reduction of TNBC tumor: peptide 0.1 mg/kg daily intranasal plus p40 mAb 2 mg/kg weekly, 2 weeks, infrared imaging
Source text: Animals: Animal maintaining and experiments were in accordance with National Institute of Health guidelines and were approved by the Institutional Animal Care and Use committee of the Rush University of Medical Center, Chicago, Ill. Patient-derived xenograft (PDX) model (ID # TM00096) was purchased from Jackson Laboratory, Bar Harbor, Me., USA. In this model, TNBC tumor fragments at passage P1-P9 (invasive ductal carcinoma; TNBC ER^−PR^−HER2^−) were engrafted in the flank of female 6-8 week old NOD scid gamma (NSG) mice. Mice were shipped to us by Jackson Laboratory within ˜2 weeks following tumor engraftment. PDX mice were maintained in our temperature-controlled animal vivarium with adequate food and water.
Tumor measurement: Tumor growth was measured with a caliper and tumor cross-sectional area was determined with the formula (mm^2=longest diameter X shortest diameter). Treatment with p40 mAb started when the tumor sizes reached 0.6-0.8 cm^2 in area. The p40 mAb a3-3a was injected once a week intraperitoneally in 0.1 ml volume of sterile PBS-1% normal mouse serum. The tumors were then measured to determine progression or regression. Infrared dye (Alexa 800-conjugated 2DG dye; Licor) was injected via tail-vein on the day before imaging analysis. Mice were sacrificed at the end of the study and tumor tissues were collected for different biochemical analyses.

BT-549 cells = test: MTT assay (cell viability), BT-549; type: cell-based, human; conditions: BT-549, 48 h, serum-free, combined with mAb a3-3a
Method: (§1) MTT assay: Mitochondrial activity was measured with the 3-(4, 5-dimethylthiazol-2-yl)-2, 5-diphenyltetrazolium bromide (MTT) assay (Sigma) as described before. The cells were grown on 24-well culture plates with 500 μl of medium and treated with various reagents according to the experimental design. At the end of the treatment period, 300 μl of culture medium were removed from each well, and 20 μl of MTT solution (5 mg/ml) were added and incubated for 1 h.

[2] = system: Hep3B (human liver cancer cells); test: MTT assay (cell viability), Hep3B; type: cell-based; conditions: 48 h, serum-free, combined with mAb a3-3a
Method: as §1

MCF-7 cells = test: MTT assay (cell viability), MCF-7; type: cell-based, human; conditions: MCF-7, 48 h, serum-free, combined with mAb a3-3a
Method: as §1

IFNγ, IL-10 = test: Serum IFNγ and IL-10 by sandwich ELISA in PDX mice; type: in vivo; conditions: peptide 0.1 mg/kg daily intranasal plus p40 mAb, 2 weeks
Method: (§2) Sandwich ELISA: Sandwich ELISA was used to quantify p402 and p40 as described by us. Briefly, for p402, mAb a3-1d (1.3 mg/mL) was diluted 1:3000 and added to each well (100 μL/well) of a 96-well ELISA plate for coating. The biotinylated p402 mAb d7-12c (2 mg/mL) was diluted 1:3000 and used as detection antibody. Similarly for p40, mAb a3-3a (1.3 mg/mL) and biotinylated p40 mAb a3-7g (2 mg/mL) were also diluted 1:3000 and used as coating and detection antibodies, respectively. Concentrations of IFN-γ, IL-12, IL-23, and IL-10 were measured in serum or tissue homogenates by ELISA (eBioscience/ThermoFisher), according to the manufacturer's instructions as described before.

human IFNγ, human IL-10 = test: IFNγ and IL-10 in tumor tissue extracts by sandwich ELISA; type: in vivo, mice; conditions: peptide 0.1 mg/kg daily intranasal plus p40 mAb, 2 weeks
Method: FIG. 23A-23B. Intranasal wtTIDM peptide stimulates the p40 mAb-mediated induction of IFNγ while reducing the level of IL-10 in TNBC tumor tissues of patient-derived xenograft (PDX) mice. Female 6-8 week old NOD scid gamma (NSG) mice were engrafted TNBC tumor fragments at passage P1-P9 (invasive ductal carcinoma; TNBC ER^−/−/PR^−/−/HER2^−/−) in the flank. After about 4 weeks of engraftment, when tumors of PDX mice were 0.6-0.8 cm^2 in size, mice were treated with p40 mAb and hamster IgG at a dose of 2 mg/kg body wt once a week. Mice were also treated with wild type (wt) and mutated (m) TLR2-interacting domain of MyD88 (TIDM) peptide at a dose of 0.1 mg/kg body wt daily via intranasal route. After 2 weeks of treatment, levels of human IFNγ (23A) and human IL-10 (23B) were measured in tumor tissue extracts by sandwich ELISA (Thermofisher). Results are mean±SEM of 6-7 mice per group. ***p<0.001.
as §2

TNBC tumor [3] = test: H&E staining of tumor sections of PDX mice; type: in vivo; conditions: peptide 0.1 mg/kg daily intranasal plus p40 mAb 2 mg/kg weekly, 2 weeks
splenocytes = test: FACS of T cells in splenocytes of PDX mice; type: in vivo; conditions: intranasal peptide plus p40 mAb, 3 weeks
Method: Isolation of splenocytes: Spleens isolated from treated or untreated PDX mice were placed into a cell strainer and mashed with a syringe plunger. Resulting single-cell suspensions were treated with RBC lysis buffer (Sigma-Aldrich), washed, and cultured in RPMI 1640 supplemented with 10% FBS, 50 μM 2-ME, 2 mM L-glutamine, 100 U/ml penicillin, and 100 μg/ml streptomycin.
Flow cytometry: Single-cell suspensions isolated from mouse spleen or tumor were stained with Zombie Aqua™ Fixable Viability Kit (Biolegend) according to the manufacturer's instructions. Cells were washed with FACS buffer (ThermoFisher) and stained with FITC-anti-human CD4 antibody and APC/Cy7-anti-human CD8 antibody (Biolegend) for extracellular stains. For IFNγ staining, cells were stained with PE-anti-human IFNγ antibody (Biolegend) and detected by flow cytometry analysis. Only PE-treated and unstained cells served as control. Flow cytometric analyses were performed using the LSRFortessa analyzer (BD Biosciences) and analyzed using the FlowJo Software (v10) as described.

Substance | shrinkage of TNBC tumor in mAb a3-3a-treated mice (TNBC tumor [1]) | death induced by p40 mAb a3-3a in presence of NBD peptide (MTT) (BT-549 cells) | death induced by p40 mAb a3-3a in presence of NBD peptide (MTT) [2] | death induced by p40 mAb a3-3a in presence of NBD peptide (MTT) (MCF-7 cells) | p40 mAb a3-3a-mediated induction of IFNγ in serum (IFNγ, IL-10) | p40 mAb a3-3a-mediated reduction of IL-10 in serum (IFNγ, IL-10) | tumor shrinkage in mAb a3-3a-treated TNBC mice (TNBC tumor [1]) | p40 mAb a3-3a-mediated reduction of TNBC tumor (TNBC tumor [1]) | death by combination of mAb a3-3a and TIDM peptide (MTT) (BT-549 cells) | p40 mAb a3-3a-mediated induction of IFNγ in tumor tissues (human IFNγ, human IL-10) | p40 mAb a3-3a-mediated reduction of IL-10 in tumor tissues (human IFNγ, human IL-10) | death by combination of mAb a3-3a and TIDM peptide (MTT) [2] | death of TNBC tumor in p40 mAb a3-3a-treated mice (H&E) (TNBC tumor [3]) | death by combination of mAb a3-3a and TIDM peptide (MTT) (MCF-7 cells) | Tc1 (CD8+IFNγ+) response in p40 mAb-treated TNBC mice (splenocytes)
mNBD: Mutated (m) NBD control peptide, drqikiwfqnrrmkwkkLDASAL (SEQ ID NO: 9) ([dD][dR][dQ][dI][dK][dI][dW][dF][dQ][dN][dR][dR][dM][dK][dW][dK][dK]LDASAL) [reference compound] | did not exhibit such effect | not seen | not seen | not seen |  |  |  |  |  |  |  |  |  |  | 
mTIDM: Mutated (m) TIDM control peptide, drqikiwfqnrmikwkkPGWHGD (SEQ ID NO.: 5) ([dD][dR][dQ][dI][dK][dI][dW][dF][dQ][dN][dR][dM][dI][dK][dW][dK][dK]PGWHGD) [reference compound] |  |  |  |  | not | not | not | remained unable to stimulate | not | not | not | not | not | not | 
TLR2-interacting domain of MyD88 (TIDM) peptide (DRQIKIWFQNRRMKWKKPGAHQK; not fully specified (some residues)) [wtTIDM] |  |  |  |  | stimulated | potentiated | greater tumor shrinkage | significantly stimulated | markedly induced death | stimulated | potentiated | markedly induced death | stimulated the death | markedly induced death | markedly stimulated
NEMO-binding domain (NBD) peptide [wtNBD] | greater shrinkage | greater death | greater death | greater death |  |  |  |  |  |  |  |  |  |  | markedly stimulated
